Results on 15 compounds are retold here after patent US20080318931A1, “Treatment of Disorders and Diseases of the Colon” (priority 2004, published 2008).

Data set [1] has as its system Human Colon carcinoma (HT29) cell-line. The experiment in a line: Viability of human colon carcinoma HT29 cells, alamar blue and neutral red. The class given is cell-based. The note with it: for cell viability / responsiveness of HT29 cells: FIG. 13; for inhibition of cell viability: 10-30 μM, FIG. 14. The procedure:
Human Colon carcinoma (HT29) cell-line (ATCC USA) was maintained in RPMI medium supplemented with 10% fetal calf serum and penicillin (100 u/ml), streptomycin (100 mcg/ml), nystatin (12.5 u/ml), L-glutamine (2 mM). Confluent cultures were washed with phosphate-buffered saline (PBS), detached with trypsine (0.25%), centrifuged, and subcultured in 96-well microtiter test plates. Cells were exposed to vehicle or to psychotropic drugs. Cell viability was measured 24 hours later using the alamar blue and neutral red methods. Results were expressed as % of controls (vehicle treated cells). Each sample is the Mean+/−[…] of 4 determinations.

The test system of data set [2] is ConA-induced mouse splenocytes. The experiment in a line: Con-A-induced mouse splenocyte proliferation/viability, alamar blue. The format is cell-based. The note with it: for cytotoxicity at 20 µM: Mus musculus, Splenocyte, read-out: inhibition of cell viability; for ConA (mitogen)-induced splenocyte proliferation: 2.5-10 μM, alamar blue. The procedure:
(§1) Mouse splenocytes were isolated from C57b1 healthy female mice. Cells (10,000/well) were tested under basal and ConA stimulation. Cells were treated with vehicle, dexamethasone or antidepressants (2.5-10 μM). Viability was assessed 48 hr later using alamar blue staining. (Reagents were manufactured by Wildflower, Santa Fe, N. Mex., USA.) Alamar blue assay was performed as in Nociari et al (1998).
(§2) Effect of paroxetine, (SSRI) and clomipramine (TCA) as compared to dexamethasone on Con-A-induced splenocyte proliferation (alamar blue method), and splenocyte-induced secretion of TH1 cytokines TNF-α, IL2 and INFγ, 1×10^6 cells/well, was measured 48 hours after exposure to drugs (2.5-10 μM).
In particular, mouse splenocytes were isolated from C57BL healthy female mice. Cells (10,000/well) were then exposed to Con-A (5 μM) and treated with either the vehicle, with dexamethasone or with a drug (2.5-10 μM).
Cell viability was assessed 48 hr later using Alamar blue staining. The results are presented in FIG. 4, where each point is the graph represents the mean of 4 determinations. […]. The IC50 determined for the antidepressant drugs was in the range of 2.5-5.5 μM.
Cells were treated with vehicle, or the antidepressants (2.5-20 μM). Viability was assessed 48 hours later using alamar blue staining. (Each point is the mean+/−SEM of 4 determinations).
Background: The colour change of resazurin is a common sign of viable cells or microbes.

The next data set has as its system human PBMC. The experiment in a line: Viability of LPS-exposed human PBMC, alamar blue. The format is cell-based. The note with it: LPS 2 ug/well, 2.5-30 μM, 48 hours, both subjects.
Data set [3] relates to TH1 cytokines TNF-α, IL2 and INFγ. Description: TH1 cytokine secretion (TNF-α, IL2, INFγ) from Con-A-induced splenocytes, ELISA. The class given is cell-based, mouse. The settings on record: 2.5-10 μM, 48 hours, 1×10^6 cells/well. The protocol:
as §2
Cytokines were determined in the supernatant of the splenocyte specimens using an ELISA kit and protocol (Reagents by Cytolab). […] The pattern observed resembles that of dexamethasone.
On the technique in general: An ELISA detects its analyte on a solid surface through an enzyme-linked reagent.

For data set [4], the system named is splenocytes derived from treated mice. Description: ConA/basal proliferation ratio of splenocytes from mice treated in vivo for 7 days. The note with it: paroxetine 7.5, clomipramine 15 mg/kg x3/week i.p., Con A 5 μM in vitro. More on the design: species or system mouse. The protocol: Paroxetine or clomipramine were administered at 7.5 and 15 mg/kg x3/week i.p, respectively. Splenocytes were derived from treated animals.
Each group represents the mean of a pool of 5 animals.

For data set [5], the system named is mouse splenocytes (basal). Description: Basal mouse splenocyte viability, alamar blue. The class given is cell-based. The settings on record: 2.5-10 μM, 48 hr. The procedure: as §1
Data set [6] deals with Con-A activated splenocytes. The experiment in a line: cells. The settings on record: Mus musculus, Splenocyte, read-out: inhibition of viability, splenocytes from naïve animals.
Procedure: (§4) LPS (manufactured by Sigma St. Louis Mo., USA, cat no L2880) was administered at 100 μg/mouse×2, on day 7 and day 14).
A further data set relates to INF-γ. The experiment in a line: INF-γ secretion from Con-A activated mouse splenocytes, ELISA. The class given is cell-based. The settings on record: Splenocyte; for inhibition at 10 µM: read-out: maximal inhibition of INF-γ. The protocol:
INF-γ was determined in the supernatant of the splenocyte specimens using ELISA kit and protocol (Manufactured by Cytolab).

The conditions of data set [7]: chitosan capsules, colon targeting technology; cited from earlier work.
Another data set has as its system C-jun. The experiment in a line: C-jun expression in HT29 cells, western blot. The format is cell-based, human. The settings on record: 10 and 20 μM, 24 hr. The protocol: (§3) The effect of paroxetine and sertraline on the expression of bcl-2 and C-jun was evaluated in human colon HT29 cell-line 24 hr after drug administration, using western blot analysis for C-jun and bcl-2 and specific antibodies.

A further data set deals with bcl-2. The experiment in a line: bcl-2 expression in HT29 cells, western blot. The class given is cell-based, human. The note with it: 10 and 20 μM, 24 hr. The procedure: as §3
(In general: A western blot detects proteins with antibodies after separation by electrophoresis.)

Data set [8] relates to HT29 human colon cancer tumor. Description: HT29 human colon cancer tumor growth in nude mice. The class given is in vivo, mouse. The settings on record: 20 mg/kg s.c ×3/week, after 3 courses. The procedure: The in-vivo anti tumor activity of active antidepressants was assessed in animal model of cancer. Five Nude mice (males, 6 weeks of age) were inoculated with HT29 cells (4,000,000/100 μL) by subcutaneous (s.c.) administration. […] Sertraline therapy was initiated on the 7th day after cell grafting. 3 animals were treated with sertraline (20 mg/kg s.c×3/week) near the cancerous area and 2 animals served as controls.

The test system of data set [9] is Con-A activated splenocytes. The settings on record: 5 μM.
Procedure: as §4
In another data set the test system is Cyclooxygenase-2 (Cox-2). The experiment in a line: Cox-2 expression in ConA stimulated mouse splenocytes, Western blot. The format is cell-based. The note with it: 5 μM, normalized to actin. The procedure:
Determination was performed using Western blot analysis and quantitative dencitometry of blot.
For each sample 2×10^7 cells were used. Cells were lysed, and equal amounts of protein was fractionated on polyacrylamide gel and then transferred to PVDF membrane. The amount of the protein was detected by immuno-blotting with […] anti-Cox-2 anti body (Murine anti COX2 Polyclonal Cat. 160126, Ann Arbor, Mich., USA. 2nd antibody conjugated to horseradish peroxidase was used and visualized with chemiluminescent Kit (Pierce, Rockford, Ill., USA) on film. Quantification of blot was performed using a densitometry apparatus (VersaDoc™ imaging system, BioRad, USA) and levels were normalized to actin.

Entries after “also recorded” stand apart in the source; their conditions may differ.

Procedure for human PBMC: Human PBMC were isolated from whole blood of 2 healthy volunteers (A and B subjects). Cells (2×10^6/ml) were exposed to LPS (2 ug/well) and treated with either the vehicle, or with paroxetine, sertraline, clomipramine and trifluoperazine (2.5-30 μM).

As to `O=c1[nH]cc(F)c(=O)[nH]1` [5FU, 5fluoro uracil], the “cell viability / responsiveness of HT29 cells” value (“cell viability / responsiveness” for short) in [1] (24 hours) is reported as “resistance”.
On to `CN(C)CCC=C1c2ccccc2CCc2ccccc21` [amitriptyline], for which the “maximal inhibition of cell viability” value in data set [2] (2.5-20 μM, 48 hours) is given as 80.7%.
As to `CN(C)CCCC1(c2ccc(F)cc2)OCc2cc(C#N)ccc21` (stereo not drawn) [citalopram], the cytotoxicity at 20 µM in data set [2] (48 hours) is 49%.
Take `CN(C)CCCN1c2ccccc2CCc2ccc(Cl)cc21` [clomipramine]: the “order of potency, decrease in cell viability” value (from here on “order of potency, decrease”) with human PBMC is recorded as “sertraline>paroxetine>trifluoperazine>/=clomipramine”. Moreover, the “lymphocyte-induced pro-inflammatory cytokine secretion” value in data set [3] was “decrease”. For the same compound, the “ConA (mitogen)-induced splenocyte proliferation” value in [2] (48 hr) is recorded as “dose dependent decrease; also recorded: dose-dependent decrease”. In addition, in data set [4], the “capacity to respond to Con-A (ratio ConA/basal) vs vehicle treated mice” value is listed as “lower capacity to respond to exogenous stimulus of Con-A”. Also, the basal splenocyte proliferation result in data set [5] is recorded as “dose dependent decrease”. In addition, the “inhibition of cell viability” value in [1] turned out to be 38%.
As to `C[C@@H]1C[C@H]2[C@@H]3CCC4=CC(=O)C=C[C@]4(C)[C@@]3(F)[C@@H](O)C[C@]2(C)[C@@]1(O)C(=O)CO` [dexamethasone], the cytotoxicity at 5 µM in data set [6] is 60%. In addition, the inhibition (as a rule, the drop in the measured response relative to a control, in per cent) at 2.5 µM in the data set on INF-γ (2.5 μM) was found to be 83%.
As for `CN(C)CCC=C1c2ccccc2COc2ccccc21` [doxepine], in [2] (48 hours), the cytotoxicity at 20 µM is 38%.
Regarding `COc1cccc2c1C(=O)c1c(O)c3c(c(O)c1C2=O)C[C@@](O)(C(=O)CO)C[C@@H]3O[C@H]1C[C@H](N)[C@H](O)[C@H](C)O1` [doxorubicin], the “cell viability / responsiveness” value in data set [1] (24 hours) was “only partial responsiveness”.
Take `OCCN1CCN(CCCN2c3ccccc3Sc3ccc(C(F)(F)F)cc32)CC1` [fluphenazine]: the “cell viability / responsiveness” value in data set [1] (24 hours) is “dose dependent decrease”.
On to `COCCCC/C(=N\OCCN)c1ccc(C(F)(F)F)cc1` [fluvoxamine], for which the inhibition at 10 µM in the data set with INF-γ is 51%.
In the case of `Nc1ccc(O)c(C(=O)O)c1` [mesalamine], in data set [7], the “decrease in systemic exposure” value was 50%.
As to `OCCN1CCN(CCCN2c3ccccc3Sc3ccc(Cl)cc32)CC1` [perphenazine], the “cell viability / responsiveness” value in [1] (24 hours) is listed as “dose dependent decrease”.
In the case of `CN[C@H]1CC[C@@H](c2ccc(Cl)c(Cl)c2)c2ccccc21` [sertraline], the “expression of C-jun” value with C-jun was “stimulation”. In the data set on bcl-2, the “expression of bcl-2” value is listed as “inhibition”. Further, the “order of potency, decrease” value in the data set on human PBMC is “sertraline>paroxetine>trifluoperazine>/=clomipramine”. In data set [8], the “tumor growth vs untreated controls (1 animal)” value is reported as “prevention of tumor growth” and the “tumor growth vs untreated controls (2 other animals)” value was “decrease in tumor growth”. Further, the “ConA (mitogen)-induced splenocyte proliferation” value in data set [2] (48 hr) is reported as “dose-dependent decrease”. For the same compound, the “cell viability compared to dexamethasone” value in [2] (Con-A 5 μM, drug 2.5-10 μM, 48 hr) is listed as “decreased cell viability to the same extent as compared to dexamethasone”. The “response of splenocytes from LPS mice treated in vivo with sertraline” value in data set [9] (LPS mice + sertraline 5 mg/kg×3/week two weeks) is “more responsive”. In [9] (LPS-treated mice), the “response of splenocytes from LPS mice” value was “in a manner similar to the naive animals”. For the same compound, the “reduction of Cox-2 expression” value in the data set with Cyclooxygenase-2 (Cox-2) came out at 24.3%. In addition, in data set [6], the cytotoxicity at 5 µM is 40%. Also, the “inhibition of cell viability” value in [1] is “up to 75%”.
With `CSc1ccc2c(c1)N(CCC1CCCCN1C)c1ccccc1S2` (stereo not drawn) [thioridazine], in data set [1] (24 hours), the “cell viability / responsiveness” value was “dose dependent decrease”. Moreover, the cytotoxicity at 20 µM in data set [1] (Homo sapiens, HT-29, 20 μM, 24 hours, read-out: inhibition of cell viability) is 85%.
As for `CN1CCN(CCCN2c3ccccc3Sc3ccc(C(F)(F)F)cc32)CC1` [trifluoperazine], the “order of potency, decrease” value with human PBMC is recorded as “sertraline>paroxetine>trifluoperazine>/=clomipramine”.
As to `COc1ccc(C(CN(C)C)C2(O)CCCCC2)cc1` (stereo not drawn) [venlafaxine], the inhibition at 10 µM in the data set with INF-γ turned out to be 16%.
